These results are taken from patent publication US9232800B2.

The test concerns Meloidogyne incognita nematodes. Kind of test: Miniaturized greenhouse nematicidal efficacy assay (cucumber seedlings in sand, root gall rating).
[1] abbreviates: 0.5 ppm, test a, average of triplicate gall ratings (scale 0-3, % root mass galled).
Where [2] appears, read: 0.5 ppm, test b, average of triplicate gall ratings (scale 0-3, % root mass galled).
Setting [3] is: 1 ppm, test a, average of triplicate gall ratings (scale 0-3, % root mass galled).
Setting [4] is: 1 ppm, test b, average of triplicate gall ratings (scale 0-3, % root mass galled).
The mark [5] stands for this setting: 8 ppm, test a, average of triplicate gall ratings (0=0-5%, 1=6-20%, 2=21-50%, 3=51-100% root mass galled), harvest 10 to 12 days after inoculation.
[6] abbreviates: 8 ppm, test b, average of triplicate gall ratings (scale 0-3, % root mass galled).

Marks after values point to notes of the source that are not given here.

Consider `c1ccc(C2=NOC(c3ccco3)N2)cc1` (stereo not shown) [Ia-ii, 5-(furan-2-yl)-3-phenyl-4,5-dihydro-1,2,4-oxadiazole], for which the “8/1/0.5 ppm gall ratings*” value reads like this: under setting [1], 2.67; under setting [2], 2.33; under setting [3], 2.00; under setting [4], 0.67; under setting [5], 0.00; under setting [6], 0.00.
Take `Fc1ccc(C2=NOC(c3cccs3)N2)cc1` (stereo not shown) [Ia-v, 3-(4-fluorophenyl)-5-(thiophen-2-yl)-4,5-dihydro-1,2,4-oxadiazole]: the “8/1/0.5 ppm gall ratings*” value runs as follows: under setting [2], 1.67; under setting [4], 0.00; under setting [6], 0.00.
As for `Clc1ccc(C2=NOC(c3ccoc3)N2)cc1` (stereo not shown) [Ib-iv, 3-(4-chlorophenyl)-5-(furan-3-yl)-4,5-dihydro-1,2,4-oxadiazole], the “8/1/0.5 ppm gall ratings*” value turned out to be 2.67 under setting [2], 1.33 under setting [4] and 0.00 under setting [6].
For `Cc1cc(Cl)ccc1C1NC(c2ccco2)=NO1` (stereo not shown) [IIa-iii, 5-(4-chloro-2-methylphenyl)-3-(furan-2-yl)-4,5-dihydro-1,2,4-oxadiazole] the same measures were 2.33, 1.67 and 0.00.
For `Clc1ccc(C2=NOC(c3ccco3)N2)cc1` (stereo not shown) [Ia-iii, 3-(4-chlorophenyl)-5-(furan-2-yl)-4,5-dihydro-1,2,4-oxadiazole] the same measures were 3.00, 1.67 and 0.00.
Take Abamectin [reference compound]: under setting [3], the “8/1/0.5 ppm gall ratings*” value is 1.67^a.
`Clc1cccc(C2NC(c3cccs3)=NO2)c1` (stereo not shown) [IIa-ii, 5-(3-chlorophenyl)-3-(thiophen-2-yl)-4,5-dihydro-1,2,4-oxadiazole]: the “8/1/0.5 ppm gall ratings*” value was 3.00 under setting [2], 2.33 under setting [4] and 0.33 under setting [6].
Take `Cc1cc(Cl)ccc1C1=NOC(c2ccco2)N1` (stereo not shown) [Ia-iv, 3-(4-chloro-2-methylphenyl)-5-(furan-2-yl)-4,5-dihydro-1,2,4-oxadiazole]: the “8/1/0.5 ppm gall ratings*” value under setting [2] came to 2.67, the “8/1/0.5 ppm gall ratings*” value under setting [4] stood at 1.67 and the “8/1/0.5 ppm gall ratings*” value under setting [6] is listed as 0.00.
As for `c1ccc(C2=NOC(c3cccs3)N2)cc1` (stereo not shown) [Ia-i, 3-phenyl-5-(thiophen-2-yl)-4,5-dihydro-1,2,4-oxadiazole], the “8/1/0.5 ppm gall ratings*” value is given as 2.33 under setting [1]; 2.67 under setting [2]; 1.33 under setting [3]; 1.67 under setting [4]; 0.00 under setting [5]; 0.00 under setting [6].
As for `Clc1ccc(C2=NOC(c3ccco3)N2)c(Cl)c1` (stereo not shown) [Ia-ix, 3-(2,4-dichlorophenyl)-5-(furan-2-yl)-4,5-dihydro-1,2,4-oxadiazole], the “8/1/0.5 ppm gall ratings*” value reads like this: under setting [2], 3.00; under setting [4], 2.33; under setting [6], 0.00.
